Measurements: ChEMBL document CHEMBL3044997, “Cytotoxic Effect of Coscinium Fenestratrum (Gaertn.) Colebr. and its Active Principle Berberine on L929 Cells” (2005)

Legend:
Format in all cases: functional
L929 [1] = assay: Cytotoxicity against Mus musculus (mouse) L929 cells assessed as metabolically active cells at 200 ug/ml after 24 hr by MTT assay relative to control
L929 [2] = assay: Cytotoxicity against Mus musculus (mouse) L929 cells assessed as metabolically active cells at 50 ug/ml after 24 hr by MTT assay relative to control
L929 [3] = assay: Cytotoxicity against Mus musculus (mouse) L929 cells assessed as metabolically active cells at 150 ug/ml after 24 hr by MTT assay relative to control
L929 [4] = assay: Cytotoxicity against Mus musculus (mouse) L929 cells assessed as metabolically active cells at 100 ug/ml after 24 hr by MTT assay relative to control

Compound: COc1ccc2cc3[n+](cc2c1OC)CCc1cc2c(cc1-3)OCO2.[Cl-] [BERBERINE CHLORIDE]
- Activity (L929 [1]): 23.57%
- Activity (L929 [2]): 106.45%
- Activity (L929 [3]): 41.77%
- Activity (L929 [4]): 67.41%
